Measured values: PubChem BioAssay (NCI)
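Values below derive from 48-hour exposures of cells grown in 96-well plates, with endpoints linearly interpolated between the two concentrations bracketing the appropriate inhibition level. TGI: concentration producing complete growth inhibition.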

How the values were obtained:
Assay in all cases: NCI tumour cell line growth inhibition, 48 h
786-0 renal = system: 786-0 renal
A498 renal = system: A498 renal
A549 NSCLC = system: A549 NSCLC
ACHN renal = system: ACHN renal
BT-549 breast = system: BT-549 breast
CAKI-1 renal = system: CAKI-1 renal
CCRF-CEM leukemia = system: CCRF-CEM leukemia
COLO 205 colon = system: COLO 205 colon
DU-145 prostate = system: DU-145 prostate
EKVX NSCLC = system: EKVX NSCLC
HCC-2998 colon = system: HCC-2998 colon
HCT-116 colon = system: HCT-116 colon
HCT-15 colon = system: HCT-15 colon
HL-60(TB) leukemia = system: HL-60(TB) leukemia
HOP-92 NSCLC = system: HOP-92 NSCLC
HS 578T breast = system: HS 578T breast
HT29 colon = system: HT29 colon
IGROV1 ovarian = system: IGROV1 ovarian
K-562 leukemia = system: K-562 leukemia
KM12 colon = system: KM12 colon
LOX IMVI melanoma = system: LOX IMVI melanoma
M14 melanoma = system: M14 melanoma
MALME-3M melanoma = system: MALME-3M melanoma
MCF7 breast = system: MCF7 breast
MDA-MB-231 breast = system: MDA-MB-231 breast
MDA-MB-435 = system: MDA-MB-435
MDA-N = system: MDA-N
MOLT-4 leukemia = system: MOLT-4 leukemia
NCI-H226 lung = system: NCI-H226 lung
NCI-H23 lung = system: NCI-H23 lung
NCI-H460 lung = system: NCI-H460 lung
NCI-H522 lung = system: NCI-H522 lung
NCI/ADR-RES ovarian = system: NCI/ADR-RES ovarian
OVCAR-3 ovarian = system: OVCAR-3 ovarian
OVCAR-4 ovarian = system: OVCAR-4 ovarian
OVCAR-5 ovarian = system: OVCAR-5 ovarian
OVCAR-8 ovarian = system: OVCAR-8 ovarian
PC-3 prostate = system: PC-3 prostate
RPMI-8226 leukemia = system: RPMI-8226 leukemia
SF-268 CNS = system: SF-268 CNS
SF-295 CNS = system: SF-295 CNS
SF-539 CNS = system: SF-539 CNS
SK-MEL-2 melanoma = system: SK-MEL-2 melanoma
SK-MEL-28 melanoma = system: SK-MEL-28 melanoma
SK-MEL-5 melanoma = system: SK-MEL-5 melanoma
SN12C renal = system: SN12C renal
SNB-19 CNS = system: SNB-19 CNS
SNB-75 CNS = system: SNB-75 CNS
SW-620 colon = system: SW-620 colon
T-47D breast = system: T-47D breast
TK-10 renal = system: TK-10 renal
U251 CNS = system: U251 CNS
UACC-257 melanoma = system: UACC-257 melanoma
UACC-62 melanoma = system: UACC-62 melanoma
HOP-62 NSCLC = system: HOP-62 NSCLC
RXF 393 renal = system: RXF 393 renal
SK-OV-3 ovarian = system: SK-OV-3 ovarian
SR leukemia = system: SR leukemia
UO-31 renal = system: UO-31 renal

C=C(C)C(=O)O[C@H]1CC2=CC(CC(C)=C[C@H]3OC(=O)C(=C)C13)OC2=O (stereo not given in full)
TGI (786-0 renal): 24.4 µM | TGI (A498 renal): 76 µM | TGI (A549 NSCLC): > 100 µM | TGI (ACHN renal): 27.6 µM | TGI (BT-549 breast): 38.9 µM | TGI (CAKI-1 renal): 34.4 µM | TGI (CCRF-CEM leukemia): 17.9 µM | TGI (COLO 205 colon): 29.3 µM | TGI (DU-145 prostate): 30.8 µM | TGI (EKVX NSCLC): 43.8 µM | TGI (HCC-2998 colon): > 100 µM | TGI (HCT-116 colon): 24.2 µM | TGI (HCT-15 colon): 25.6 µM | TGI (HL-60(TB) leukemia): 11.8 µM | TGI (HOP-92 NSCLC): 32.4 µM | TGI (HS 578T breast): > 100 µM | TGI (HT29 colon): 43.2 µM | TGI (IGROV1 ovarian): > 100 µM | TGI (K-562 leukemia): 22.5 µM | TGI (KM12 colon): 47.1 µM | TGI (LOX IMVI melanoma): 53.7 µM | TGI (M14 melanoma): > 100 µM | TGI (MALME-3M melanoma): 40.7 µM | TGI (MCF7 breast): 49.1 µM | TGI (MDA-MB-231 breast): 60.8 µM | TGI (MDA-MB-435): > 100 µM | TGI (MDA-N): 89.4 µM | TGI (MOLT-4 leukemia): 40.7 µM | TGI (NCI-H226 lung): > 100 µM | TGI (NCI-H23 lung): > 100 µM | TGI (NCI-H460 lung): > 100 µM | TGI (NCI-H522 lung): 17 µM | TGI (NCI/ADR-RES ovarian): > 100 µM | TGI (OVCAR-3 ovarian): 70.5 µM | TGI (OVCAR-4 ovarian): > 100 µM | TGI (OVCAR-5 ovarian): > 100 µM | TGI (OVCAR-8 ovarian): > 100 µM | TGI (PC-3 prostate): 53.5 µM | TGI (RPMI-8226 leukemia): 9.21 µM | TGI (SF-268 CNS): 68.5 µM | TGI (SF-295 CNS): > 100 µM | TGI (SF-539 CNS): > 100 µM | TGI (SK-MEL-2 melanoma): 72.4 µM | TGI (SK-MEL-28 melanoma): 31.2 µM | TGI (SK-MEL-5 melanoma): > 100 µM | TGI (SN12C renal): 51.4 µM | TGI (SNB-19 CNS): > 100 µM | TGI (SNB-75 CNS): > 100 µM | TGI (SW-620 colon): 36 µM | TGI (T-47D breast): 36.9 µM | TGI (TK-10 renal): 22.6 µM | TGI (U251 CNS): > 100 µM | TGI (UACC-257 melanoma): 96.3 µM | TGI (UACC-62 melanoma): 38.8 µM

O=C1c2c(ccc3c2CCCC3)CC1Cc1ccc2c(c1)CCCC2 (stereo not given)
TGI (786-0 renal): > 100 µM | TGI (A498 renal): > 100 µM | TGI (A549 NSCLC): > 100 µM | TGI (ACHN renal): > 100 µM | TGI (BT-549 breast): > 100 µM | TGI (CCRF-CEM leukemia): 59.7 µM | TGI (COLO 205 colon): > 100 µM | TGI (DU-145 prostate): > 100 µM | TGI (EKVX NSCLC): > 100 µM | TGI (HCC-2998 colon): > 100 µM | TGI (HCT-116 colon): > 100 µM | TGI (HCT-15 colon): > 100 µM | TGI (HL-60(TB) leukemia): 46.9 µM | TGI (HOP-62 NSCLC): > 100 µM | TGI (HOP-92 NSCLC): 83.6 µM | TGI (HS 578T breast): > 100 µM | TGI (HT29 colon): > 100 µM | TGI (IGROV1 ovarian): > 100 µM | TGI (K-562 leukemia): > 100 µM | TGI (KM12 colon): > 100 µM | TGI (LOX IMVI melanoma): > 100 µM | TGI (M14 melanoma): > 100 µM | TGI (MALME-3M melanoma): > 100 µM | TGI (MCF7 breast): > 100 µM | TGI (MDA-MB-231 breast): > 100 µM | TGI (MDA-MB-435): > 100 µM | TGI (MDA-N): > 100 µM | TGI (MOLT-4 leukemia): > 100 µM | TGI (NCI-H226 lung): > 100 µM | TGI (NCI-H23 lung): > 100 µM | TGI (NCI-H460 lung): > 100 µM | TGI (OVCAR-3 ovarian): > 100 µM | TGI (OVCAR-4 ovarian): > 100 µM | TGI (OVCAR-5 ovarian): > 100 µM | TGI (OVCAR-8 ovarian): > 100 µM | TGI (PC-3 prostate): > 100 µM | TGI (RPMI-8226 leukemia): > 100 µM | TGI (RXF 393 renal): 78.5 µM | TGI (SF-268 CNS): > 100 µM | TGI (SF-295 CNS): > 100 µM | TGI (SF-539 CNS): > 100 µM | TGI (SK-MEL-2 melanoma): > 100 µM | TGI (SK-MEL-28 melanoma): > 100 µM | TGI (SK-MEL-5 melanoma): > 100 µM | TGI (SK-OV-3 ovarian): > 100 µM | TGI (SN12C renal): > 100 µM | TGI (SNB-19 CNS): > 100 µM | TGI (SNB-75 CNS): > 100 µM | TGI (SR leukemia): 67.6 µM | TGI (SW-620 colon): > 100 µM | TGI (T-47D breast): 9.84 µM | TGI (TK-10 renal): > 100 µM | TGI (U251 CNS): > 100 µM | TGI (UACC-257 melanoma): 71 µM | TGI (UACC-62 melanoma): > 100 µM | TGI (UO-31 renal): > 100 µM
